Laboratory results taken from US20030114512A1, “Compounds with 5-ht2 and 5-ht1a agonist activity for treating glaucoma” (priority 2002, published 2003).
Like-named read-outs stand apart in the source and are kept apart here.

Key:
[1] = biological target: T1, human cloned 5-HT1A receptors (Homo sapiens, UniProt P08908); experiment: 5-HT1A receptor binding assay ([3H]8-OH-DPAT); conditions: [3H]8-OH-DPAT, CHO cell membranes; read-out: IC50, nM (SEM) 5-HT1A receptor binding
T1 construct: purchased NEN (manufactured by Biosignal, Inc., Montreal, Canada); host or cells: CHO cells (membranes)
T1 sequence (P08908 1-422): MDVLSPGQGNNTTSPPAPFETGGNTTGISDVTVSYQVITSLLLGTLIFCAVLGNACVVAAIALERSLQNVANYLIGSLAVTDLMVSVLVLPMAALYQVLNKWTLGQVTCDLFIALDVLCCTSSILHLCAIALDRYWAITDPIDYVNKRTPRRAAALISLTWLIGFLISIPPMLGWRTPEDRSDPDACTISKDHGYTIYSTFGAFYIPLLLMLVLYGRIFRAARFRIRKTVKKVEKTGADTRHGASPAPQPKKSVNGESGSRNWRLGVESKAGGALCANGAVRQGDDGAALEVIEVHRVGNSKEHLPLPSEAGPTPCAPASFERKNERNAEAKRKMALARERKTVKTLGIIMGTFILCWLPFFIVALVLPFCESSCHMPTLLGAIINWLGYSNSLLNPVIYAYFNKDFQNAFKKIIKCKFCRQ
Experimental: 5-HT1A Receptor Binding Assay
5-HT1A binding studies were performed with human cloned receptors expressed in Chinese hamster ovary (CHO) cells using (^3H)8-OH DPAT as the ligand. Membranes from Chinese hamster ovary cells (CHO) expressing cloned 5-HT1A receptors (manufactured for NEN by Biosignal, Inc., Montreal, Canada) were homogenized in approximately 40 volumes of 50 mM Tris pH 7.4 for 5 sec. Drug dilutions were made using a Beckman Biomek 2000 robot (Beckman Instruments, Fullerton, Calif.). Incubations were conducted with membrane prep, test compounds, and 0.25 nM [^3H]8-OH-DPAT (NEN, Boston, Mass.) in the same buffer at 27° C. for 1 h. Assays were terminated by rapid vacuum filtration over Whatman GF/B glass fiber filters pre-soaked in 0.3% polyethyleneimine. Bound radioactivity was measured using liquid scintillation spectrometry. Data were analyzed using non-linear curve fitting programs (Sharif et al., J. Pharmac. Pharmacol. 51: 685-694, 1999).
Ligand binding studies can also be run using membrane preparations from calf and rat brain (local source) and human cortex membranes. Specific brain regions were dissected out, homogenized in 10 volumes of 0.32 M sucrose and centrifuged for 10 min at 700×g. The resulting supernatant was centrifuged at 43,500×g for 10 min and the pellet re-suspended in 50 mM Tris-HCl (pH 7.7, 25° C.) using a 10 sec polytron treatment. Aliquots were stored at −140° C. To remove endogenous serotonin, the preps were incubated at 37° C. for 10 min prior to the experiment. Assay incubations were terminated by rapid filtration over Whatman GF/C filters using a Brandel cell harvester. Ki values were calculated using the Cheng-Prusoff equation (De Vry et al., J. Pharm. Exper. Ther. 284:1082-1094, 1998.)

[2] = system: intraocular pressure; experiment: IOP response in lasered (hypertensive) eyes of conscious cynomolgus monkeys; format: in vivo, cynomolgus monkey; conditions: 300 μg topical ocular
Experimental: IOP Response in Lasered (Hypertensive) Eyes of Conscious Cynomolgus Monkeys
Intraocular pressure (IOP) was determined with an Alcon Pneumatonometer after light corneal anesthesia with 0.1% proparacaine. Eyes were washed with saline after each measurement. After a baseline IOP measurement, test compound was instilled in one 30 μL aliquot to the right eyes only of nine cynomolgus monkeys. Vehicle was instilled in the right eyes of six additional animals. Subsequent IOP measurements were taken at 1, 3, and 6 hours.

[3] = biological target: T2, 5-HT2 receptor (Rattus norvegicus, UniProt P14842); experiment: 5-HT2 functional assay: phosphoinositide (PI) turnover; format: cell-based; conditions: for Emax: A7r5 cells, relative to 5-HT set at 100%, read-out: Efficacy (Emax, %) 5-HT2 functional; for EC50: [3H]inositol phosphates, A7r5 rat vascular smooth muscle cells, read-out: EC50, nM (SEM) 5-HT2 functional
T2 construct: A7r5 rat vascular smooth muscle cells; endogenous in cells; host or cells: A7r5 rat vascular smooth muscle cells
Experimental: 5-HT2 Functional Assay: Phosphoinositide (PI) Turnover Assay
The relative agonist activity of serotonergic compounds at the 5-HT2 receptor can be determined in vitro using the ability of the compounds to stimulate the production of [^3H]inositol phosphates in [^3H]myo-inositol-labeled A7r5 rat vascular smooth muscle cells by their ability to activate the enzyme phospholipase C. These cells are grown in culture plates, maintained in a humidified atmosphere of 5% CO2 and 95% air and fed semi-weekly with Dulbecco's modified Eagle medium (DMEM) containing 4.5 g/l glucose and supplemented with 2 mM glutamine, 10 μg/ml gentamicin, and 10% fetal bovine serum. For the purpose of conducting the phosphoinositide (PI) turnover experiments, the A7r5 cells are cultured in 24-well plates as previously [J. Pharmacol. Expt. Ther., 286, 411 (1998)]. Confluent cells are exposed for 24-30 hrs to 1.5 μCi [^3H]-myo-inositol (18.3 Ci/mmol) in 0.5 ml of serum-free medium. Cells are then rinsed once with DMEM/F-12 containing 10 mM LiCl prior to incubation with the test agent (or solvent as the control) in 1.0 ml of the same medium for 1 hr at 37° C., after which the medium is aspirated and 1 ml of cold 0.1 M formic acid added to stop the reaction. The chromatographic separation of [^3H]-inositol phosphates ([^3H]-IPs) on an AG-1-X8 column is performed as previously described [J. Pharmacol. Expt. Ther. 286, 411 (1998)] with sequential washes with H2O and 50 mM ammonium formate, followed by elution of the total [^3H]-IPs fraction with 1.2 M ammonium formate containing 0.1 M formic acid. The eluate (4 ml) is collected, mixed with 15 ml scintillation fluid, and the total [^3H]-IPs determined by scintillation counting on a beta counter. Concentration-response data are analyzed by the sigmoidal fit function of the Origin Scientific Graphics software (Microcal Software, Northampton, Mass.) to determine agonist potency (EC50 value) and efficacy (Emax). Serotonin (5-HT) is used as a positive control (standard) agonist compound and the efficacy of test compounds is compared to that of 5-HT (set at 100%). The concentration of the compound needed to stimulate the production of [^3H]-IPs by 50% of the maximum response is termed the EC50 value.

[4] = system: intraocular pressure; conditions: monkey; ascribed to α1A receptor activity; cited from earlier work
[5] = system: intraocular pressure; conditions: rabbits; cited from earlier work

T2 sequence (P14842 whole entry): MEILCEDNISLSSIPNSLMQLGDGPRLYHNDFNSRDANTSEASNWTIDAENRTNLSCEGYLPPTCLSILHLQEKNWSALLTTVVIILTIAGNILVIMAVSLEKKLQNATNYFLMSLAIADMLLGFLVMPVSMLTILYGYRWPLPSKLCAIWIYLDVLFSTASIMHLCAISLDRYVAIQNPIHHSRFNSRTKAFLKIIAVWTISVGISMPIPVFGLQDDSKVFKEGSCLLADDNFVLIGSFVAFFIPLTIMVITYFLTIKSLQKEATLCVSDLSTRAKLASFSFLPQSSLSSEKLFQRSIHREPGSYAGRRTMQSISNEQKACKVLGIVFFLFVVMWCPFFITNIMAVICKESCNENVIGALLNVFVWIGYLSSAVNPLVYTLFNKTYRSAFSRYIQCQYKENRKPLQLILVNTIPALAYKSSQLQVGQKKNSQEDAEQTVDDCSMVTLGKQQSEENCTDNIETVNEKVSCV

| SMILES | IC50 [1] [nM] | Percent IOP Reduction ([2]; 1 hour after dose) [%] | Percent IOP Reduction ([2]; 3 hours after dose) [%] | Percent IOP Reduction ([2]; 6 hours after dose) [%] | Emax [3] [%] | EC50 [3] [nM] | Effect on IOP [4] | Effect on IOP [5] |
| --- | --- | --- | --- | --- | --- | --- | --- | --- |
| CC(N)Cn1ccc2cc(Cl)ccc21.O=C(O)/C=C/C(=O)O (centres unmarked) [1-(2-aminopropyl) 5-chloroindole fumarate] | 417 | 1.2 | 16 | 20.1 | 104 | 1390 |  |  |
| COc1ccccc1N1CCN(CCCNc2c(C)c(=O)n(C)c(=O)n2C)CC1 [5-methylurapidil] |  |  |  |  |  |  | lowers IOP |  |
| CCCN(CCC)C1CCc2cccc(O)c2C1 (centres unmarked) [Compound 8-OH-DPAT, 8-hydroxydipropylaminotetralin] |  |  |  |  |  |  |  | reduces IOP |
| COc1ccc2ccn(CC(C)N)c2c1.O=C(O)/C=C/C(=O)O (centres unmarked) [1-(2-aminopropyl) 6-methoxyindole fumarate] | 225 | 22.5 | 33.1 | 27.5 | 88 | 255 |  |  |
